Source: PMC9603521, “WYBQ-4: a New Bactericidal Agent against Methicillin-Resistant Staphylococcus aureus” (Microbiology Spectrum, 2022)

Key:
[1] = tested on: Enterococcus faecium; assay: MIC by broth microdilution (CLSI); type: cell-based; details: compared to that against Staphylococcus
[2] = tested on: Enterococcus faecalis; assay: MIC by broth microdilution (CLSI); type: cell-based; details: compared to that against Staphylococcus
[3] = biological target: PBP2a (Staphylococcus aureus, UniProt P07944); assay: PBP2a deacylation rate, BOCILLIN FL as reporter; type: biochemical, MRSA; details: deacylation of PBP2a
Procedure: Α = A + ∆ε E (k∗ ∕ (k∗ + k∗)(1 − exp (−(k∗ + k∗)t)) + k N ∆ε Ε t (2)
Where kn* is the pseudo-first-order rate constant for acylation by nitrocefin at the concentration (N0) employed (0.1 mM), ki* the pseudo-first-order rate constant for the reaction of PBP2a with the WYBQ-4, E0 the initial enzyme concentration (2.5 µM), and k0 the second-order rate constant of nonspecific nitrocefin hydrolysis. Second-order rate constants (ki) for acylation were calculated from a linear least-squares fit to a plot of the apparent first-order rate constants (ki*) against the concentration of WYBQ-4. All plots were linear for the concentrations of WYBQ-4 used.
Determination of dissociation equilibrium constants (Ks) of WYBQ-4 and PBP2a The dissociation equilibrium constant (Ks) of PBP2a with WYBQ-4 were determined by the BOCILLIN method (2), as previously described. […] Samples (30 μL) were loaded onto a 10% SDS-polyacrylamide gel, which was developed and then observed using a fluorescence imager to calculate the grayscale curve. […]
The deacylation rate constants for wild-type PBP2a were determined using BOCILLIN FL as a reporter molecule. […]
The mixture was diluted 5 times with buffer and incubated at room temperature for different time intervals. […] Grayscale analysis was performed by imageJ and the rate constant k3 for the deacylation reaction of WYBQ-4 with PBP2a was determined based on eqn (3): […]

[4] = tested on: MSSA 29213; assay: Time-kill curve; type: cell-based, Staphylococcus aureus; details: 4× MIC, at 9 h
Procedure: (§1) The bactericidal activities of WYBQ-4 against MSSA 29213 and MRSA USA300 were determined in vitro. Overnight cultures were diluted to 10^6 CFU (CFU)/mL in 10 mL of fresh Mueller-Hinton broth (MHB) medium. […] After incubation at 37°C with shaking for 0 to 24 h, 100-μL samples from each time point were subcultured on MHB agar plates and incubated at 37°C for 24 h. MSSA 29213 and MRSA USA300 without WYBQ-4 were used as control groups. Colony numbers were counted to calculate the CFU, and the data were expressed as log10 CFU. Three biological replicates were performed for the experiment.

[5] = tested on: MRSA USA300; assay: Time-kill curve; type: cell-based, Staphylococcus aureus; details: 8× MIC, at 9 h
Procedure: as §1

[6] = tested on: MRSA USA300; assay: Mouse lung infection model, bacterial load and histopathology; type: in vivo, mice; details: mouse pneumonia
Procedure: The mice were challenged with 1 × 10^8 CFU of MRSA USA300 to assess bacterial load and pathological changes. The dose and manner of administration in mice were consistent with the survival experiments. In addition, the mice treated with ceftaroline fosamil at 75 and 37.5 mg/kg were used as control groups. At 48 h postinfection, mice were euthanized, and the left lungs were aseptically removed, weighed, and homogenized. Then, the lung tissues were homogenized and serially diluted for CFU counts. The right lungs were fixed with 10% formalin, embedded in paraffin, thin-sectioned, subjected to conventional hematoxylin and eosin (H&E) staining, and then observed using an optical microscope.

Sequence of PBP2a (P07944 whole entry): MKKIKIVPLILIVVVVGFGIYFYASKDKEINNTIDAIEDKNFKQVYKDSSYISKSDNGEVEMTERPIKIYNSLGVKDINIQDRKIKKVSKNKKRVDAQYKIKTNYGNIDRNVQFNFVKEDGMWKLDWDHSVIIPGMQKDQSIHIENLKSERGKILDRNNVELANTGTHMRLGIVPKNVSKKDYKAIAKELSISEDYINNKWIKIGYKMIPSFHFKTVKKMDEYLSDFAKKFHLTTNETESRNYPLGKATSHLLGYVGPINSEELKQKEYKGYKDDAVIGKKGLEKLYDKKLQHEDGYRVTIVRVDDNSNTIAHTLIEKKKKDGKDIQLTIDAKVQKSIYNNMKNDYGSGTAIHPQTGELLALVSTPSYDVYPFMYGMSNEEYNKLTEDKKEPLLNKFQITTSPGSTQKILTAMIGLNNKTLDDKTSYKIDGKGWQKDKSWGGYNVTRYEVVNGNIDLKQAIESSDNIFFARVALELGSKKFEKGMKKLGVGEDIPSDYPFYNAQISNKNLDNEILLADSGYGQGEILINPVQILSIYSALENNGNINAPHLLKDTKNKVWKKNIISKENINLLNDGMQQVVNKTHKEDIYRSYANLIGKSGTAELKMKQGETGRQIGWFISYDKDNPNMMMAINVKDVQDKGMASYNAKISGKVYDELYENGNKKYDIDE

## C#CCO[C@@]1(NC(=O)CSc2cccc(C)c2)C(=O)N2C(C(=O)O)=C(CSc3nnnn3C)CSC21 (stereo partly shown) [WYBQ-4]
[1]
  antibacterial activity: weak
[2]
  antibacterial activity: weak
[3]
  k3: 11 ± 1.32 s^–1 × 10^6
[4]
  time-dependent killing effect: complete sterilization
[5]
  time-dependent killing effect: complete sterilization
[6]; USA300 1 × 10^8 CFU, 75 mg/kg, 48 h postinfection
  bacterial counts in the lung: 5.44 ± 0.15 log10 CFU/g
[6]; USA300, after treatment
  inflammatory signs of lung tissue (H&E histopathology): significantly reduced
